According to the supplement of paper PMC11451515:

Tested on: NOMO1
Experiment: cell viability relative to DMSO control; higher = less cytotoxic
Details: 48 h
Method in brief: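 Three leukemia lines were tested: NOMO1 and SEM at 500 cells/well and P12-Ichikawa at 1000 cells/well. Each was adapted for at least four passages in each medium and seeded in 5 μl in 1536-well plates, and library compounds in DMSO were pin-dosed from 47 μM to 0.79 nM in 11 threefold steps. After 48 h at 37°C, CellTiter-Glo One luminescence was read. Viability is a percentage relative to DMSO wells on each plate, with cell-free wells as background.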

[1] = HPLM + 10% dialyzed FBS, 0.000781 µM
[2] = HPLM + 10% dialyzed FBS, 0.00234 µM
[3] = HPLM + 10% dialyzed FBS, 0.00702 µM
[4] = HPLM + 10% dialyzed FBS, 0.0211 µM
[5] = HPLM + 10% dialyzed FBS, 0.0632 µM
[6] = HPLM + 10% dialyzed FBS, 0.19 µM
[7] = HPLM + 10% dialyzed FBS, 0.569 µM
[8] = HPLM + 10% dialyzed FBS, 1.71 µM
[9] = HPLM + 10% dialyzed FBS, 5.12 µM
[10] = HPLM + 10% dialyzed FBS, 15.4 µM
[11] = HPLM + 10% dialyzed FBS, 46.1 µM
[12] = RPMI 5 mM glucose + 10% FBS, 0.000781 µM
[13] = RPMI 5 mM glucose + 10% FBS, 0.00234 µM
[14] = RPMI 5 mM glucose + 10% FBS, 0.00702 µM
[15] = RPMI 5 mM glucose + 10% FBS, 0.0211 µM
[16] = RPMI 5 mM glucose + 10% FBS, 0.0632 µM
[17] = RPMI 5 mM glucose + 10% FBS, 0.19 µM
[18] = RPMI 5 mM glucose + 10% FBS, 0.569 µM
[19] = RPMI 5 mM glucose + 10% FBS, 1.71 µM
[20] = RPMI 5 mM glucose + 10% FBS, 5.12 µM
[21] = RPMI 5 mM glucose + 10% FBS, 15.4 µM
[22] = RPMI 5 mM glucose + 10% FBS, 46.1 µM
[23] = RPMI 5 mM glucose + 10% dialyzed FBS, 0.000781 µM
[24] = RPMI 5 mM glucose + 10% dialyzed FBS, 0.00234 µM
[25] = RPMI 5 mM glucose + 10% dialyzed FBS, 0.00702 µM
[26] = RPMI 5 mM glucose + 10% dialyzed FBS, 0.0211 µM
[27] = RPMI 5 mM glucose + 10% dialyzed FBS, 0.0632 µM
[28] = RPMI 5 mM glucose + 10% dialyzed FBS, 0.19 µM
[29] = RPMI 5 mM glucose + 10% dialyzed FBS, 0.569 µM
[30] = RPMI 5 mM glucose + 10% dialyzed FBS, 1.71 µM
[31] = RPMI 5 mM glucose + 10% dialyzed FBS, 5.12 µM
[32] = RPMI 5 mM glucose + 10% dialyzed FBS, 15.4 µM
[33] = RPMI 5 mM glucose + 10% dialyzed FBS, 46.1 µM

SMILES | cell viability [1] [%] | cell viability [2] [%] | cell viability [3] [%] | cell viability [4] [%] | cell viability [5] [%] | cell viability [6] [%] | cell viability [7] [%] | cell viability [8] [%] | cell viability [9] [%] | cell viability [10] [%] | cell viability [11] [%] | cell viability [12] [%] | cell viability [13] [%] | cell viability [14] [%] | cell viability [15] [%] | cell viability [16] [%] | cell viability [17] [%] | cell viability [18] [%] | cell viability [19] [%] | cell viability [20] [%] | cell viability [21] [%] | cell viability [22] [%] | cell viability [23] [%] | cell viability [24] [%] | cell viability [25] [%] | cell viability [26] [%] | cell viability [27] [%] | cell viability [28] [%] | cell viability [29] [%] | cell viability [30] [%] | cell viability [31] [%] | cell viability [32] [%] | cell viability [33] [%]
O=C(Nc1ccccc1-c1cn2c(CN3CCNCC3)csc2n1)c1cnc2ccccc2n1 | 91.8 | 83 | 71.9 | 77.7 | 82.6 | 92 | 81.9 | 66.6 | 79.3 | 74.2 | 76.3 | 76.6 | 80.6 | 82.9 | 85.1 | 79.7 | 85.3 | 70.3 | 68.1 | 77.1 | 65.6 | 0.639 | 86.3 | 84.6 | 96 | 90.5 | 80 | 80.2 | 74.2 | 86.8 | 79.4 | 69 | 75.1
CC(C)C(=O)Oc1ccc(CO)cc1[C@H](CCN(C(C)C)C(C)C)c1ccccc1 | 99.1 | 104 | 85.7 | 87 | 85.6 | 91.8 | 93.3 | 88.9 | 78.9 | 81.1 | 71.7 | 85.2 | 78.8 | 88.8 | 93.3 | 82.5 | 76 | 80 | 83.4 | 85.2 | 79.1 | 78.4 | 78.3 | 79.6 | 86.4 | 78.9 | 73.8 | 79.2 | 73.5 | 80.8 | 77.4 | 82.5 | 79.1
Nc1nc(N)c2nc(CNc3ccc(C(=O)NC(CCC(=O)O)C(=O)O)cc3)cnc2n1 (centres undefined) | 105 | 123 | 118 | 112 | 97.5 | 70.4 | 49.8 | 57.1 | 57.4 | 61.4 | 65.2 | 97.1 | 95.9 | 103 | 102 | 92.9 | 118 | 103 | 106 | 112 | 133 | 117 | 119 | 117 | 118 | 131 | 72.7 | 42.9 | 38.3 | 45 | 46 | 38.9 | 40.1
C=CC(=O)N1CCC[C@@H](n2nc(-c3ccc(Oc4ccccc4)cc3)c3c(N)ncnc32)C1 |  |  |  |  |  |  |  |  |  |  |  | 117 | 117 | 113 | 101 | 110 | 99.2 | 110 | 107 | 132 | 108 | 121 | 122 | 123 | 113 | 102 | 119 | 113 | 118 | 117 | 120 | 129 | 95.9
CC[C@H](C)[N]1C=C(C)C2=C1C=C(C=C2C(=O)NC\C3=C(C)\C=C(\C)NC3=O)C4=CC=C(N=C4)N5CCNCC5 | 112 | 108 | 125 | 131 | 130 | 129 | 124 | 104 | 127 | 122 | 82.3 | 105 | 108 | 121 | 123 | 122 | 115 | 126 | 115 | 128 | 113 | 102 | 116 | 125 | 124 | 127 | 128 | 123 | 137 | 138 | 148 | 118 | 96.4
O=C(Nc1ccc(F)c(C(F)(F)F)c1)Nc1nnc(-c2ccncc2)s1 | 112 | 120 | 127 | 130 | 134 | 136 | 118 | 112 | 118 | 108 | 111 | 123 | 113 | 124 | 106 | 114 | 105 | 121 | 102 | 108 | 107 | 101 | 119 | 124 | 128 | 124 | 125 | 131 | 113 | 128 | 116 | 114 | 100
NC(=O)c1ccc(I)c([N+](=O)[O-])c1 | 130 | 123 | 110 | 138 | 126 | 140 | 128 | 117 | 126 | 124 | 117 | 125 | 125 | 120 | 131 | 119 | 125 | 126 | 140 | 133 | 120 | 118 | 123 | 120 | 137 | 143 | 148 | 132 | 148 | 139 | 143 | 158 | 130
CCN1\C=C(\C(O)=O)C(=O)C2=CC=C(C)N=C12 | 75.3 | 87.7 | 99.4 | 103 | 102 | 116 | 95.8 | 100 | 81.7 | 88.1 | 47.4 | 81.9 | 103 | 98.2 | 89.1 | 103 | 96.6 | 100 | 91 | 99.9 | 90.6 | 56 | 66.6 | 76.6 | 71.2 | 80.1 | 83.2 | 83.5 | 80.5 | 89.5 | 82.5 | 81.6 | 61.7
C/C=C(/C)C(=O)O[C@H]1C(C)=C[C@]23C(=O)[C@@H](C=C(CO)[C@@H](O)[C@]12O)[C@H]1[C@@H](C[C@H]3C)C1(C)C | 119 | 127 | 114 | 112 | 93.5 | 69 | 66.4 | 64.7 | 60.6 | 61.5 | 39.3 | 121 | 128 | 121 | 108 | 96 | 79.1 | 67.8 | 65.9 | 66.3 | 69.4 | 51.7 |  |  |  |  |  |  |  |  |  |  | 
N[C@H](CSC(c1ccccc1)(c1ccccc1)c1ccccc1)C(=O)O | 108 | 114 | 133 | 135 | 116 | 108 | 115 | 125 | 120 | 129 | 99.6 | 121 | 113 | 126 | 131 | 123 | 118 | 138 | 139 | 114 | 115 | 106 | 106 | 116 | 117 | 129 | 131 | 127 | 134 | 126 | 108 | 109 | 116
CC(C)CC(=O)N[C@H](C(=O)N[C@H](C(=O)N[C@@H](CC(C)C)[C@@H](O)CC(=O)N[C@@H](C)C(=O)N[C@@H](CC(C)C)[C@@H](O)CC(=O)O)C(C)C)C(C)C | 107 | 96.3 | 120 | 106 | 112 | 117 | 118 | 108 | 119 | 124 | 119 | 105 | 119 | 94.4 | 107 | 102 | 114 | 99.8 | 108 | 93.1 | 97.8 | 90.3 | 91.6 | 98.4 | 111 | 115 | 104 | 110 | 112 | 113 | 116 | 107 | 105
CCOC(=O)\C1=C(/C)N\C2=C(C1C3=CC=C(C=C3)C4=CC=CC=C4)\C(=O)CC(C)(C)C2 (centres undefined) | 125 | 97.2 | 125 | 117 | 116 | 114 | 102 | 102 | 106 | 82.3 | 73.6 | 107 | 103 | 102 | 108 | 105 | 109 | 103 | 102 | 106 | 87 | 88.2 | 110 | 103 | 111 | 114 | 113 | 95.1 | 104 | 112 | 90.1 | 73.7 | 74.8
C[C@]12CCC(=O)C=C1CC[C@@H]1[C@@H]2CC[C@@]2(C)[C@H]1CC[C@]2(C)O | 109 | 116 | 115 | 85.3 | 110 | 102 | 108 | 102 | 99.1 | 96.5 | 90.2 | 85.1 | 89.6 | 88.9 | 97.2 | 86 | 96.5 | 91.1 | 86.8 | 98.7 | 87.7 | 83.4 | 107 | 93.8 | 96.1 | 86.5 | 105 | 93.1 | 91.6 | 98.1 | 90.9 | 91.6 | 90.7
COC1=C2OC(=O)\C=C/C2=CC3=C1OC=C3 | 117 | 116 | 120 | 116 | 116 | 123 | 107 | 118 | 109 | 101 | 116 | 108 | 115 | 115 | 117 | 121 | 113 | 96.5 | 104 | 108 | 105 | 97.3 | 104 | 109 | 115 | 117 | 114 | 113 | 113 | 108 | 104 | 101 | 107
O=C(O[C@H]1C[C@H]2CC[C@@H](C1)[N+]21CCCC1)C(O)(c1ccccc1)c1ccccc1.[Cl-] | 95.5 | 116 | 121 | 107 | 124 | 116 | 116 | 116 | 116 | 110 | 106 | 89.4 | 95.7 | 99.6 | 89.9 | 92.3 | 98.3 | 96.8 | 105 | 100 | 105 | 92.1 | 97.6 | 98.8 | 111 | 109 | 98.1 | 102 | 94.8 | 95 | 111 | 106 | 108
COc1cc2nccc(Oc3ccc(NC(=O)NC4CC4)c(Cl)c3)c2cc1C(N)=O | 129 | 120 | 111 | 98.7 | 145 | 100 | 114 | 113 | 111 | 78.1 | 17.2 |  |  |  |  |  |  |  |  |  |  |  |  |  |  |  |  |  |  |  |  |  | 
